Results from US20160058705A1 (priority 2014, published 2016).
Entries after “also recorded” stand apart in the source; their conditions may differ.

Key:
[1] = system: TAC-induced cardiac hypertrophy; assay: Histology (Masson's trichrome) of heart sections two weeks post injury; type: in vivo, mouse; settings: TAC mice
Description: (§1) All procedures involving animal use, housing, and surgeries were approved by the Stanford Institutional Animal Care and Use Committee (IACUC). Animal care and interventions were provided in accordance with the Laboratory Animal Welfare Act.
(§2) For constriction of transverse thoracic aorta (DeAlmeida et al. (2010) J. Vis. Exp. April 21(38) pii:172), mice were anesthetized using an isoflurane inhalational chamber, followed by endotracheal intubation using a 22-gauge angiocatheter (Becton, Dickinson Inc., Sandy, Utah) connected to a small animal ventilator (Harvard Apparatus, Holliston, Mass.). A left thoracotomy was performed via the fourth intercostal space, the transverse aorta was identified, and a 6.0 silk suture was placed between the innominate and left carotid arteries. The suture was tightened around a 271/2 gauge blunt needle, placed parallel to the aorta (FIG. 1B) to induce a constriction of ˜0.4 mm in diameter. In sham control mice, an identical procedure was conducted, except for the constriction of the aorta.
Histological analysis was performed following standard protocols for paraffin embedding. Mounted heart samples were stained for Masson's trichrome (TC, to label muscle fibers in red, collagen in blue, cytoplasm in pink, and nuclei in dark brown). A minimum of 4 sections per sample were used.

[2] = system: TAC-induced cardiac hypertrophy; assay: Echocardiography in mouse model of TAC (pressure overload-induced cardiac hypertrophy); type: in vivo; settings: TAC mice, 300 μg/kg IP at days 1 and 7; compared with TAC controls
Description: as §1, §2
In vivo heart function was evaluated by echocardiography at 1 day prior to surgery (baseline) and on days 1, 7, and 14 post-surgery (FIG. 1A). […] Fractional shortening (FS), LV internal diameter at end diastole (LVIDd) and systole (LVIDs), and posterior LV wall thickness at end diastole (LVPWd) were measured. […]

Substance: pyroglutamyl apelin-13 [[Pyr1]-apelin-13]
- size of LV and extent of cardiac fibrosis (trichrome histology) [1]: remarkable inhibition of the LV growth
- hypertrophic response / cardiac remodeling and dysfunction due to pressure overload [2]: more modest effect; also recorded: slight inhibition of cardiac remodeling and increase in FS
